Our source for the TGI values is PubChem BioAssay (NCI).

Some test systems named below: 786-0 renal; BT-549 breast; MDA-N; SNB-19 CNS; HS 578T breast.
Common to all, as to test: inhibition of tumour cell growth, NCI panel, 48 h

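A five-concentration, 48-hour dose response in 96-well plates underlies each endpoint, interpolated linearly between surrounding concentrations. TGI: total growth inhibition.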 Where a SMILES comes first, the peptide text is derived from it. The star is where a group is joined. Boc = CC(C)(C)OC(=O)*

Consider `CCOP(C)(=O)C(Cc1c[nH]c2ccccc12)C(=O)O` (stereo not given), for which the TGI with 786-0 renal, in the assay on BT-549 breast, with MDA-N and in the assay with SNB-19 CNS was over 100 µM each time.

Regarding `CC(C)(C)OC(=O)N(O)[C@@H]1C=C[C@H](n2cnc3c(N)ncnc32)C1`, the TGI in the assay with 786-0 renal, in the assay on BT-549 breast, in the assay with HS 578T breast, in the assay on MDA-N and in the assay with SNB-19 CNS was over 100 µM each time.

For `O=C(/C=C(\O)c1ccc(Cl)cc1)C(=O)N=Nc1c(O)[nH]c2ccc(Br)cc12`, the TGI in the assay with 786-0 renal, with BT-549 breast, with HS 578T breast, in the assay on MDA-N and in the assay on SNB-19 CNS was over 100 µM in each case.

With `CC(=O)C1C(=O)C(=O)N(c2cccc(C)c2C)C1=O` (stereo not given), the TGI with 786-0 renal, with BT-549 breast, with MDA-N and in the assay with SNB-19 CNS was over 100 µM in each case.

As to `C#CCOC(=O)c1ccccc1O`, the TGI with 786-0 renal, in the assay with BT-549 breast, with HS 578T breast, in the assay with MDA-N and in the assay on SNB-19 CNS was over 100 µM in each case.

Consider `CCN(CC)CC(=O)Nc1c(C(N)=O)nnn1Cc1cc(Cl)c(C(=O)c2ccc(Cl)cc2)c(Cl)c1`, for which the TGI in the assay with 786-0 renal was 31.4 µM; with BT-549 breast, 34.6 µM; with HS 578T breast, 33 µM; in the assay with SNB-19 CNS, over 100 µM.

Consider `Cc1ccc(S(=O)(=O)N2CC3OC(C)(C)OC3C2CO)cc1` (stereo not given), for which the TGI with 786-0 renal, in the assay on HS 578T breast and in the assay on MDA-N was over 100 µM each time.

Turning to `Cc1ccc(/C(O)=C/c2nc3ccccc3oc2=O)cc1`, the TGI with 786-0 renal was over 100 µM; in the assay with BT-549 breast, over 100 µM; with HS 578T breast, over 100 µM; with MDA-N, 59.3 µM; in the assay on SNB-19 CNS, over 100 µM.

Take `COc1ccc(NC(=O)CC(=O)N2N=C(N3CCCCC3)CC2c2ccccc2)cc1` (stereo not given): the TGI in the assay on 786-0 renal, in the assay on BT-549 breast, in the assay on HS 578T breast, with MDA-N and with SNB-19 CNS was over 100 µM throughout.

Turning to `Cc1ccc([N+](=O)[O-])c2c(NCCNC(=O)Cn3ccnc3[N+](=O)[O-])ccnc12`, the TGI in the assay on 786-0 renal, in the assay on HS 578T breast, in the assay on MDA-N and with SNB-19 CNS was over 100 µM each time.

As for `Cc1cc(C)nc(NS(=O)(=O)c2ccc(Nc3nncc(=O)n3N)cc2)n1`, the TGI with 786-0 renal is 29.2 µM; with BT-549 breast, 32.6 µM; in the assay with HS 578T breast, over 100 µM; in the assay on MDA-N, 30 µM; in the assay with SNB-19 CNS, 83 µM.

In the case of `CC1CN=C(Nc2ccc(F)cc2F)S1` (stereo not given), the TGI with 786-0 renal, in the assay on HS 578T breast, with MDA-N and in the assay with SNB-19 CNS was over 100 µM each time.

Consider `COC(=O)/C=C/c1ccc2c(c1)CCC2`, for which the TGI in the assay with 786-0 renal, in the assay on HS 578T breast, in the assay on MDA-N and in the assay with SNB-19 CNS was over 100 µM in each case.

For `CC1=NN(c2nc(N)nc(CCl)n2)CC1`, the TGI in the assay on 786-0 renal is 23 µM; with BT-549 breast it was over 100 µM; in the assay on HS 578T breast, over 100 µM; in the assay on SNB-19 CNS, over 100 µM.

Turning to `COc1cc(/C=C2\C[C@H]3[C@@H]4CC=C5C[C@@H](O)CC[C@]5(C)[C@H]4CC[C@]3(C)[C@H]2O)cc(OC)c1OC`, the TGI in the assay on 786-0 renal was 27.1 µM; in the assay on BT-549 breast, 56.8 µM; in the assay on HS 578T breast, over 100 µM; with MDA-N, over 100 µM; in the assay on SNB-19 CNS, over 100 µM.

As for `C/C=C(C)/C=C/CC(C)CCC=C(C)C` (stereo not given), the TGI with 786-0 renal, in the assay with BT-549 breast, in the assay on MDA-N and in the assay on SNB-19 CNS was over 100 µM each time.

In the case of `COc1ccc(CN2C[C@H]3[C@@H](CC(=O)O[C@H]3C)CC2=O)cc1`, the TGI with 786-0 renal, with BT-549 breast, with HS 578T breast, in the assay on MDA-N and in the assay with SNB-19 CNS was over 100 µM throughout.

Consider `CCCCCCCC1(N=[N+]=[N-])C(=O)c2ccccc2N(C)C1=O` (stereo not given), for which the TGI with 786-0 renal, with BT-549 breast, in the assay with HS 578T breast and with SNB-19 CNS was over 100 µM throughout.

On to `CCOC(=O)c1cc2c(ccc3cc(C(=O)OCC)[nH]c32)[nH]1`, for which the TGI is 31.3 µM in the assay with 786-0 renal; over 100 µM with BT-549 breast; 58.6 µM with HS 578T breast; over 100 µM with MDA-N; 74.6 µM with SNB-19 CNS.

Regarding `C[C@H]1O[C@@H](c2c(O)ccc3ccccc23)C[C@@H](N(C)C)C1O` (stereo not given in full), the TGI in the assay with 786-0 renal, in the assay with BT-549 breast, with HS 578T breast, in the assay on MDA-N and with SNB-19 CNS was over 100 µM each time.

Consider `Cc1ccc2c(c1)C(=O)/C(=C\c1ccccc1)CCS2(=O)=O`, for which the TGI in the assay with 786-0 renal is 25.2 µM; in the assay with BT-549 breast, over 37.2 µM; in the assay on HS 578T breast, over 85.1 µM; in the assay on MDA-N, over 52.4 µM; in the assay with SNB-19 CNS it was 28.2 µM.

As for `COC(=O)[C@@H]1CN(C(=O)c2ccccc2)C(=O)N1`, the TGI with 786-0 renal, in the assay with HS 578T breast, in the assay on MDA-N and in the assay on SNB-19 CNS was over 100 µM in each case.

With `O=C1CCCCC/C1=C\c1ccc(F)cc1`, the TGI in the assay on 786-0 renal, in the assay on BT-549 breast, in the assay on HS 578T breast, in the assay with MDA-N and in the assay with SNB-19 CNS was over 100 µM throughout.

As for `O=c1cc(-c2ccccc2)[nH]c2cc(F)c(F)cc12`, the TGI in the assay with 786-0 renal is 4.18 µM; with HS 578T breast, over 28.9 µM; in the assay on MDA-N, 1.17 µM; in the assay on SNB-19 CNS it was over 50.6 µM.

As for `N#Cc1c2ccc([N+](=O)[O-])cc2c(=O)n2c1sc1ccc(C(F)(F)F)cc12`, the TGI in the assay with 786-0 renal, in the assay on BT-549 breast and in the assay with SNB-19 CNS was over 100 µM throughout.

With `OCC(CN1CCCCC1)(CN1CCCCC1)CN1CCCCC1`, the TGI in the assay with 786-0 renal, with BT-549 breast, in the assay with HS 578T breast, in the assay with MDA-N and with SNB-19 CNS was over 100 µM each time.

With `CC(C)=CCC[C@@H](C)C1=C(O)C(Nc2ccccc2Br)=C(C)C(=O)C1=O`, the TGI amounted to 51.2 µM in the assay on 786-0 renal; 50.1 µM in the assay on BT-549 breast; 49.3 µM in the assay with HS 578T breast; 27.5 µM in the assay on MDA-N; 73 µM in the assay with SNB-19 CNS.

On to `CC(=O)O[C@H]1C(=O)[C@@]2(C)[C@H]([C@H](OC(=O)c3ccccc3)[C@]3(O)C[C@H](OC(=O)[C@H](OC(=O)OCCC(O)CO)[C@@H](NC(=O)c4ccccc4)c4ccccc4)C(C)=C1C3(C)C)[C@]1(OC(C)=O)CO[C@@H]1C[C@@H]2O` (stereo not given in full), for which the figures for the TGI in the assay with 786-0 renal, in the assay on BT-549 breast and in the assay on SNB-19 CNS were 33 µM, 19.1 µM and over 100 µM, respectively.

Regarding `CSC1=C(C(=O)Nc2ccc(Cl)cc2)C(N)=NC1=O`, the TGI with 786-0 renal, in the assay with BT-549 breast, in the assay on HS 578T breast and in the assay with SNB-19 CNS was over 100 µM throughout.

Consider `Cc1ccc(S(=O)(=O)N2CCN(S(=O)(=O)c3ccc(C)cc3)Cc3ccccc3C2)cc1`, for which the TGI in the assay on 786-0 renal is over 100 µM; in the assay on BT-549 breast, over 100 µM; with HS 578T breast, 96.5 µM; in the assay with SNB-19 CNS it was over 100 µM.

Regarding `CC(C)CNC(=O)CCc1cccc2c1oc1c(CCN)cccc12`, the TGI in the assay on 786-0 renal is 24.9 µM; with MDA-N, 40.5 µM; in the assay on SNB-19 CNS it was 15.9 µM.

As for `CCOC(=O)Cc1nnc2c(-c3ccccc3)nc3ccccc3n12`, the TGI in the assay on 786-0 renal was over 100 µM; in the assay with BT-549 breast it was over 100 µM; in the assay with MDA-N it was over 100 µM; in the assay with SNB-19 CNS, 62.1 µM.

Turning to `CC(=O)OC1CCN(C(=O)c2ccccc2)CC1CC1(c2cc3ccccc3[nH]2)OCCO1` (stereo not given), the TGI in the assay with 786-0 renal, with MDA-N and in the assay on SNB-19 CNS was over 100 µM each time.

As for `CC(NC(=O)C(NC(=O)OC(C)(C)C)C(C)C)C(=O)N1CCCC1C(=O)NCC(=O)NC(C(=O)NCC(=O)O)C(C)C` (stereo not given) (Boc-VAPGVG-OH; configuration not given here), the TGI in the assay on 786-0 renal, in the assay on MDA-N and in the assay on SNB-19 CNS was over 100 µM each time.

Consider `COc1cc(OC)cc(Oc2nc3ccccc3nc2C(=O)O)c1`, for which the TGI in the assay with 786-0 renal, in the assay on HS 578T breast and with SNB-19 CNS was over 100 µM throughout.

`OC(c1nc2ccccc2s1)(C(F)(F)F)C(F)(F)F`: the TGI in the assay on 786-0 renal, with HS 578T breast, with MDA-N and with SNB-19 CNS was over 100 µM throughout.

`O=C(Nc1cc(C(=O)Nc2cccc(S(=O)(=O)O)c2)cc(C(=O)Nc2cccc(S(=O)(=O)O)c2)c1)c1cccc(C(=O)Nc2cc(C(=O)Nc3cccc(S(=O)(=O)O)c3)cc(C(=O)Nc3cccc(S(=O)(=O)O)c3)c2)c1`: the TGI in the assay with 786-0 renal, in the assay on BT-549 breast, with HS 578T breast and in the assay with MDA-N was over 100 µM each time.
